Changes are numbered by the printed parent chain. Values joined by “and” are separate entries in the source; they are usually repeats but may differ in a detail not shown here. Equal values may be shown once. Read-outs that look alike come from different tables or passages of the source.
Assays:
[1] = target: T1, eGFP-M2 solubilized in digitonin–cholate (Homo sapiens, UniProt P08172); assay: Time-resolved fluorescence and fluorescence anisotropy of eGFP-tagged M2 receptor; details: eGFP-M2 + carbachol 1 mM
T1 sequence (P08172 1-466): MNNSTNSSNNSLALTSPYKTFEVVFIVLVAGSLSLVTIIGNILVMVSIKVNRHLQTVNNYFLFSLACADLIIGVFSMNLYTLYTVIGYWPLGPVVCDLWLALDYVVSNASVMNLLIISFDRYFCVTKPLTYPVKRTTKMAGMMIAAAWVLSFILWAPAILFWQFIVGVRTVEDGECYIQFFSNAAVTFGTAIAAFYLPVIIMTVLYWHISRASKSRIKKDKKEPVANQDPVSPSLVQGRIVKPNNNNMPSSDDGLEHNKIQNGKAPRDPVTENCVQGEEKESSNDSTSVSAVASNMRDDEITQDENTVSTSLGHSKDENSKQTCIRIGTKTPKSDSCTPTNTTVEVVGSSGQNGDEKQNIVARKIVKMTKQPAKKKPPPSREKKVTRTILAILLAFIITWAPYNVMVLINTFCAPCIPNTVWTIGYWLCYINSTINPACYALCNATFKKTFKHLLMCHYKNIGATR

[2] = target: T2, FlAsH-reacted mCh-M2-FCM in CHO cells (Homo sapiens, UniProt P08172, INS166FLNCCPGCCMEP); assay: FRET between FlAsH and mCherry in the sensor, ligand-dependent change in Eapp; format: cell-based; details: ligand 1 mM
T2 sequence (P08172 with tags, fused parts or gaps): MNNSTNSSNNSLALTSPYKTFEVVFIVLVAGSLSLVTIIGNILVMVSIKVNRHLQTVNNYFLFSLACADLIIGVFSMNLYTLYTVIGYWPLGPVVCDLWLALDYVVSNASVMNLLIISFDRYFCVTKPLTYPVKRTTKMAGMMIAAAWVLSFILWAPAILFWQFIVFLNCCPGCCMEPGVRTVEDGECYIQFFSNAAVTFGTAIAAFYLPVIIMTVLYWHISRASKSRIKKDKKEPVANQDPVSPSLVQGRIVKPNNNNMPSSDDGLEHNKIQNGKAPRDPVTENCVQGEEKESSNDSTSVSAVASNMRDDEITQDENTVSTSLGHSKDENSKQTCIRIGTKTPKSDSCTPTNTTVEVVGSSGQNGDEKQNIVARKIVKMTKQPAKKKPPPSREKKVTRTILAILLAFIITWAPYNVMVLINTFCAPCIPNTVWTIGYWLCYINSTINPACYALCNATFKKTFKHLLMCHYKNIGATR

[3] = target: T3, M2 receptor monomers purified from Sf9 cells (Homo sapiens, UniProt P08172); assay: Effect of allosteric modulators on the binding of [3H]NMS to purified monomers
T3 sequence (P08172 1-466): T1 sequence (P08172 1-466)

[4] = tested on: M2 receptor in Sf9 membranes; details: cited from earlier work
[5] = target: T4, copurified heteromer of M2-ECL2+ve and M2-D103A (Homo sapiens, UniProt P08172, D103A/D173R/E172K/E175K); assay: Effect of gallamine on the binding of [3H]NMS to purified hetero-oligomers; details: [3H]NMS 10 nM; 21 hr at 30°C
T4 construct: hexahistidine (His6) (N); made in house; host or cells: co-transfected CHO cells; purified on Ni2+-NTA and anti-FLAG resins
T4 sequence (P08172 1-466 E172K/D173R/E175K): T1 sequence (P08172 1-466) with E172K, D173R, E175K
T4 sequence (P08172 1-466 D103A): T1 sequence (P08172 1-466) with D103A

[6] = target: T3, M2 receptor monomers purified from Sf9 cells; format: binding
[7] = target: mCh-M2(D103A)-FCM (human) (UniProt P08172)
[8] = target: M2 receptor in membranes from CHO cells (Homo sapiens, UniProt P08172)
[9] = target: M2 receptors extracted from porcine sarcolemmal membranes (Sus scrofa, UniProt P06199)
Sequence of M2 receptors extracted from porcine sarcolemmal membranes (P06199 whole entry): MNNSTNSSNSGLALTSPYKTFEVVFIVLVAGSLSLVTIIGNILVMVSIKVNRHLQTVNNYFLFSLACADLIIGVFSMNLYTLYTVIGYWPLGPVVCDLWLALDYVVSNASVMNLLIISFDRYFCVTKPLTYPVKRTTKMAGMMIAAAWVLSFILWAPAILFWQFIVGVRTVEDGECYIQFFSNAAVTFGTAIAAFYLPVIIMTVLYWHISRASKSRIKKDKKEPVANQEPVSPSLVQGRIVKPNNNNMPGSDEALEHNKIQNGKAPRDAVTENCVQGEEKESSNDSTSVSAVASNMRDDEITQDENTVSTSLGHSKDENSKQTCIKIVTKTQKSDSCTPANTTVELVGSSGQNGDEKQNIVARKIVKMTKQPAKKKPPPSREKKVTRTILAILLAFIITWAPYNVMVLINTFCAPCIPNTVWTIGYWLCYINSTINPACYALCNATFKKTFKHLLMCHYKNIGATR

[10] = tested on: M2 receptors (alanine for aspartic acid at position 103) in HEK293 membranes; details: cited from earlier work
[11] = gallamine, [3H]NMS 10 nM, 21 h at 30 °C, n = 1

C[N+](C)(C)CCOC(N)=O [carbachol]
Fluorescence lifetime (τ) [1]: 2.5 ± 0.1 ns
Rotational correlation time (φ) [1]: 43 ± 5 ns
∆Eapp, mean change in FRET efficiency ± S.D. [2]: −21.6 ± 11.2%

CC[N+](CC)(CC)CCOc1cccc(OCC[N+](CC)(CC)CC)c1OCC[N+](CC)(CC)CC [gallamine]
F1 [3, 11]: 1.00
nH(1) [3, 11]: 1.00 ± 0.06
log K1 (Equation 2), dose-dependence of kobsd/k0 [4]: −5.99 ± 0.31
log K2 (Equation 2), dose-dependence of kobsd/k0 [4]: −4.35 ± 0.03
log K2 (Equation 2, n = 3) [5]: 4.29 ± 0.37
F1 [6]: 1.00

eGFP-M2 (from UniProt P08172 1-466) (receptor)
NMS (1 μM)-dependent increase in the FRET efficiency between FlAsH and mCherry of the binding-deficient sensor in CHO cells that display eGFP, FlAsH and mCherry (percentage points) [7]: 5.3

O=C1C[C@@H]2OCC=C3CN4CC[C@]56c7ccccc7N1[C@H]5[C@H]2[C@H]3C[C@H]46 [strychnine]
F2 [8]: 2.21 ± 0.16
nH(1) [8]: 0.72 ± 0.06 and 0.98 ± 0.14 and 1.20 ± 0.07
nH(2) [8]: 1.44 ± 0.09 and 1.07 ± 0.08
F1 [3]: 1.00
nH(1) [3]: 0.62 ± 0.07 and 1.23 ± 0.07
F2 [9]: 1.57 and 2

N-[^3H]methylscopolamine [[^3H]NMS]
specific binding of radioligand [10]: prevent the specific binding

From paper PMC4900804, “Allosteric modulation in monomers and oligomers of a G protein-coupled receptor” (eLife, 2016)
